Target: T1, cDNA, FLJ78895, highly similar to 3-oxo-5-alpha-steroid 4-dehydrogenase 1 (Homo sapiens, UniProt B7Z4L2)
T1 sequence (B7Z4L2 whole entry): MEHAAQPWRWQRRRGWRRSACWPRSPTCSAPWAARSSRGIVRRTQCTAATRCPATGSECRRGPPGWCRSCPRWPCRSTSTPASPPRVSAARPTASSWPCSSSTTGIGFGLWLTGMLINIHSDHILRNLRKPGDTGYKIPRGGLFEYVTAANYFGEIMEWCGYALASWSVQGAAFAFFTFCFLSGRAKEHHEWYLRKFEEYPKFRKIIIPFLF
Test: 5α-Reductase Activity Assay
Conditions: pH 6.5; 37 °C
Procedure: The reaction mixtures contained a final volume of 1 mL, 1 mM DTT, sodium phosphate buffer 40 mM, at pH 6.5, 2 mM, NADPH, 2 nM [1,2,6,7-3H]T or [1,2,3,7-3H(N)] 4-dione and the prostatic enzyme fractions. The amount of prostatic enzyme fractions was determined to adjust the rate of conversion of T to DHT or 4-dione to 5α-dione to around 28%. T, DHT, unlabeled 4-dione or 5α-dione concentrationswere adjusted to 25-250 nM in the incubating medium, by adding one of the following reagents cold T, DHT, unlabeled 4-dione or 5α-dione. The reactions in duplicate were started when added to the enzymatic fraction (400 μg protein in a volume of 80 μL) incubated at 37°C for 60 min13 and stopped by mixing with 1 mL ofdichloromethane. Incubation without tissue was used as a control. All reactions were carried out in two different times by duplicate.

Row | IC50 [nM] | SMILES
1 | 50 | CCc1ccc(C(=O)O[C@]2(C(C)=O)CCC3C4CCC5=C(Br)C(=O)CCC5(C)C4CCC32C)cc1 (some centres not stated) [4-Bromo-3,20-dioxopregn-4-ene-17-yl-4-ethylbenzoate (8b)]
2 | 1.6 | CC(=O)[C@@]1(O)CCC2C3CCC4=C(Br)C(=O)CCC4(C)C3CCC21C (stereo partly drawn) [4-Bromo-17α-hydroxypregn-4-ene-3,20-dione (7b)]
3 | 73 | CCc1ccc(C(=O)O[C@]2(C(C)=O)CCC3C4CCC5=C(Cl)C(=O)CCC5(C)C4CCC32C)cc1 (some centres not stated) [4-Chloro-3,20-dioxopregn-4-ene-17-yl-4-ethylbenzoate (8a)]
4 | 1.3 | CC(C)(C)NC(=O)[C@H]1CC[C@H]2[C@@H]3CC[C@H]4NC(=O)C=C[C@]4(C)[C@H]3CC[C@]12C [4a,6a-Dimethyl-2-oxo-2,4a,4b,5,6,6a,7,8,9,9a,9b,10,11,11a-tetradecahydro-1H-indeno[5,4-f]quinoline-7-carboxylic acid tert-butylamide]

Row | SMILES | IC50 [nM]
5 | CC(=O)O[C@]1(C(C)=O)CCC2C3CCC4=CC(=O)CCC4(C)C3CCC21C (some centres not stated) [3,20-Dioxopregn-4-ene-17-yl acetate (4)] | 500
6 | CC(=O)[C@@]1(O)CCC2C3CCC4=C(Cl)C(=O)CCC4(C)C3CCC21C (stereo partly drawn) [4-Chloro-17α-hydroxypregn-4-ene-3,20-dione (7a)] | 63
7 | CC(=O)[C@@]1(O)CCC2C3CCC4=CC(=O)CCC4(C)C3CCC21C (stereo partly drawn) [17α-Hydroxypregn-4-ene-3,20-dione (5)] | 2

Reference: BindingDB's records for doi:10.3109/14756366.2010.548330 (Metropolitan University-Xochimilco, 2011)
